Paper PMC12446476 (Nature Communications, 2025)
Converted amounts (≈) assume the structure as drawn. Read-outs that look alike come from different tables or passages of the source.

System: non-gonococcal Neisseria
Test: MIC determination for non-gonococcal Neisseria, agar dilution
Format: cell-based, Neisseria species
Conditions: read-out: Minimum inhibitory concentration
From the text: The 2024 WHO N. gonorrhoeae reference strains were used for quality control. Only whole MIC doubling dilutions are reported. Clinical breakpoints or the epidemiological cutoff (ECOFF, to indicate azithromycin resistance) from EUCAST (v14.0, https://www.eucast.org/clinical_breakpoints) were used to classify isolates as antimicrobial susceptible or resistant. […] Two times the standard inoculum defined by CLSI was used to establish consistent growth in untreated control samples for some strains. In vitro time-kill assays were performed according to CLSI guidelines[65] using Columbia Broth (BD Difco) supplemented with 1% IsoVitaleX Enrichment (BD). Viable bacterial counts were generated by plating 10-fold serially diluted samples on GC agar plates containing 1% IsoVitaleX Enrichment (BD).

Cc1c(CN(C)C(=O)/C=C/c2cnc3c(c2)N[C@H](C)[C@H](O)C(=O)N3)oc2ccccc12 [Debio 1453]
MIC (Neisseria lactamica 1, Replicate 3): 0.032 µg/mL (≈ 0.0761 µM)
MIC (Neisseria lactamica 2, Consensus): 0.064 µg/mL (≈ 0.152 µM)
MIC (Neisseria lactamica 2, Replicate 1): 0.064 µg/mL (≈ 0.152 µM)
MIC (Neisseria lactamica 2, Replicate 2): 0.064 µg/mL (≈ 0.152 µM)
MIC (Neisseria lactamica 2, Replicate 3): 0.064 µg/mL (≈ 0.152 µM)
MIC (Neisseria lactamica 3, Consensus): 0.016 µg/mL (≈ 0.0381 µM)
MIC (Neisseria lactamica 3, Replicate 1): 0.016 µg/mL (≈ 0.0381 µM)
MIC (Neisseria lactamica 3, Replicate 2): 0.016 µg/mL (≈ 0.0381 µM)
MIC (Neisseria lactamica 3, Replicate 3): 0.016 µg/mL (≈ 0.0381 µM)
MIC (Neisseria lactamica 4, Consensus): 0.064 µg/mL (≈ 0.152 µM)
MIC (Neisseria lactamica 4, Replicate 1): 0.064 µg/mL (≈ 0.152 µM)
MIC (Neisseria lactamica 4, Replicate 2): 0.064 µg/mL (≈ 0.152 µM)
MIC (Neisseria lactamica 4, Replicate 3): 0.064 µg/mL (≈ 0.152 µM)
MIC (Neisseria lactamica 5, Consensus): 0.016 µg/mL (≈ 0.0381 µM)
MIC (Neisseria lactamica 5, Replicate 1): 0.032 µg/mL (≈ 0.0761 µM)
MIC (Neisseria lactamica 5, Replicate 2): 0.016 µg/mL (≈ 0.0381 µM)
MIC (Neisseria lactamica 5, Replicate 3): 0.016 µg/mL (≈ 0.0381 µM)
MIC (Neisseria lactamica 6, Consensus): 0.032 µg/mL (≈ 0.0761 µM)
MIC (Neisseria lactamica 6, Replicate 1): 0.032 µg/mL (≈ 0.0761 µM)
MIC (Neisseria lactamica 6, Replicate 2): 0.032 µg/mL (≈ 0.0761 µM)
MIC (Neisseria lactamica 6, Replicate 3): 0.032 µg/mL (≈ 0.0761 µM)
MIC (Neisseria lactamica 7, Consensus): 0.032 µg/mL (≈ 0.0761 µM)
MIC (Neisseria lactamica 7, Replicate 1): 0.032 µg/mL (≈ 0.0761 µM)
MIC (Neisseria lactamica 7, Replicate 2): 0.032 µg/mL (≈ 0.0761 µM)
MIC (Neisseria lactamica 7, Replicate 3): 0.064 µg/mL (≈ 0.152 µM)
MIC (Neisseria lactamica 8, Consensus): 0.032 µg/mL (≈ 0.0761 µM)
MIC (Neisseria lactamica 8, Replicate 1): 0.032 µg/mL (≈ 0.0761 µM)
MIC (Neisseria lactamica 8, Replicate 2): 0.032 µg/mL (≈ 0.0761 µM)
MIC (Neisseria lactamica 8, Replicate 3): 0.064 µg/mL (≈ 0.152 µM)
MIC (Neisseria lactamica 9, Consensus): 0.064 µg/mL (≈ 0.152 µM)
MIC (Neisseria lactamica 9, Replicate 1): 0.064 µg/mL (≈ 0.152 µM)
MIC (Neisseria lactamica 9, Replicate 2): 0.032 µg/mL (≈ 0.0761 µM)
MIC (Neisseria lactamica 9, Replicate 3): 0.064 µg/mL (≈ 0.152 µM)
MIC (Neisseria lactamica 10, Consensus): 0.032 µg/mL (≈ 0.0761 µM)
MIC (Neisseria lactamica 10, Replicate 1): 0.032 µg/mL (≈ 0.0761 µM)
MIC (Neisseria lactamica 10, Replicate 2): 0.016 µg/mL (≈ 0.0381 µM)
MIC (Neisseria lactamica 10, Replicate 3): 0.032 µg/mL (≈ 0.0761 µM)
MIC (Neisseria lactamica 11, Consensus): 0.032 µg/mL (≈ 0.0761 µM)
MIC (Neisseria lactamica 11, Replicate 1): 0.032 µg/mL (≈ 0.0761 µM)
MIC (Neisseria lactamica 11, Replicate 2): 0.032 µg/mL (≈ 0.0761 µM)
MIC (Neisseria lactamica 11, Replicate 3): 0.032 µg/mL (≈ 0.0761 µM)
MIC (Neisseria macacae 1, Consensus): 2 µg/mL (≈ 4.76 µM)
MIC (Neisseria macacae 1, Replicate 1): 1 µg/mL (≈ 2.38 µM)
MIC (Neisseria macacae 1, Replicate 2): 2 µg/mL (≈ 4.76 µM)
MIC (Neisseria macacae 1, Replicate 3): 2 µg/mL (≈ 4.76 µM)
MIC (Neisseria macacae 2, Consensus): 2 µg/mL (≈ 4.76 µM)
MIC (Neisseria macacae 2, Replicate 1): 2 µg/mL (≈ 4.76 µM)
MIC (Neisseria macacae 2, Replicate 2): 2 µg/mL (≈ 4.76 µM)
MIC (Neisseria macacae 2, Replicate 3): 2 µg/mL (≈ 4.76 µM)
MIC (Neisseria macacae 3, Consensus): 0.25 µg/mL (≈ 0.595 µM)
MIC (Neisseria macacae 3, Replicate 1): 0.25 µg/mL (≈ 0.595 µM)
MIC (Neisseria macacae 3, Replicate 2): 0.25 µg/mL (≈ 0.595 µM)
MIC (Neisseria macacae 3, Replicate 3): 0.5 µg/mL (≈ 1.19 µM)
MIC (Neisseria macacae 4, Consensus): 2 µg/mL (≈ 4.76 µM)
MIC (Neisseria macacae 4, Replicate 1): 1 µg/mL (≈ 2.38 µM)
MIC (Neisseria macacae 4, Replicate 2): 2 µg/mL (≈ 4.76 µM)
MIC (Neisseria macacae 4, Replicate 3): 2 µg/mL (≈ 4.76 µM)
MIC (Neisseria macacae 5, Consensus): 2 µg/mL (≈ 4.76 µM)
MIC (Neisseria macacae 5, Replicate 1): 2 µg/mL (≈ 4.76 µM)
MIC (Neisseria macacae 5, Replicate 2): 2 µg/mL (≈ 4.76 µM)
MIC (Neisseria macacae 5, Replicate 3): 2 µg/mL (≈ 4.76 µM)
MIC (Neisseria macacae 6, Consensus): 0.5 µg/mL (≈ 1.19 µM)
MIC (Neisseria macacae 6, Replicate 1): 0.25 µg/mL (≈ 0.595 µM)
MIC (Neisseria macacae 6, Replicate 2): 0.5 µg/mL (≈ 1.19 µM)
MIC (Neisseria macacae 6, Replicate 3): 0.5 µg/mL (≈ 1.19 µM)
MIC (Neisseria macacae 7, Consensus): 0.5 µg/mL (≈ 1.19 µM)
MIC (Neisseria macacae 7, Replicate 1): 0.25 µg/mL (≈ 0.595 µM)
MIC (Neisseria macacae 7, Replicate 2): 0.5 µg/mL (≈ 1.19 µM)
MIC (Neisseria macacae 7, Replicate 3): 0.5 µg/mL (≈ 1.19 µM)
MIC (Neisseria meningitidis gr 29E, Consensus): 0.064 µg/mL (≈ 0.152 µM)
MIC (Neisseria meningitidis gr 29E, Replicate 1): 0.064 µg/mL (≈ 0.152 µM)
MIC (Neisseria meningitidis gr 29E, Replicate 2): 0.032 µg/mL (≈ 0.0761 µM)
MIC (Neisseria meningitidis gr 29E, Replicate 3): 0.064 µg/mL (≈ 0.152 µM)
MIC (Neisseria meningitidis gr A, Consensus): 0.032 µg/mL (≈ 0.0761 µM)
MIC (Neisseria meningitidis gr A, Replicate 1): 0.032 µg/mL (≈ 0.0761 µM)
MIC (Neisseria meningitidis gr A, Replicate 2): 0.032 µg/mL (≈ 0.0761 µM)
MIC (Neisseria meningitidis gr A, Replicate 3): 0.032 µg/mL (≈ 0.0761 µM)
MIC (Neisseria meningitidis gr B, Consensus): 0.016 µg/mL (≈ 0.0381 µM)
MIC (Neisseria meningitidis gr B, Replicate 1): 0.016 µg/mL (≈ 0.0381 µM)
MIC (Neisseria meningitidis gr B, Replicate 2): 0.016 µg/mL (≈ 0.0381 µM)
MIC (Neisseria meningitidis gr B, Replicate 3): 0.016 µg/mL (≈ 0.0381 µM)
MIC (Neisseria meningitidis gr C, Consensus): 0.032 µg/mL (≈ 0.0761 µM)
MIC (Neisseria meningitidis gr C, Replicate 1): 0.032 µg/mL (≈ 0.0761 µM)
MIC (Neisseria meningitidis gr C, Replicate 2): 0.032 µg/mL (≈ 0.0761 µM)
MIC (Neisseria meningitidis gr C, Replicate 3): 0.032 µg/mL (≈ 0.0761 µM)
MIC (Neisseria meningitidis gr W, Consensus): 0.008 µg/mL (≈ 0.019 µM)
MIC (Neisseria meningitidis gr W, Replicate 1): 0.008 µg/mL (≈ 0.019 µM)
MIC (Neisseria meningitidis gr W, Replicate 2): 0.008 µg/mL (≈ 0.019 µM)
MIC (Neisseria meningitidis gr W, Replicate 3): 0.008 µg/mL (≈ 0.019 µM)
MIC (Neisseria meningitidis gr X, Consensus): 0.016 µg/mL (≈ 0.0381 µM)
MIC (Neisseria meningitidis gr X, Replicate 1): 0.016 µg/mL (≈ 0.0381 µM)
MIC (Neisseria meningitidis gr X, Replicate 2): 0.016 µg/mL (≈ 0.0381 µM)
MIC (Neisseria meningitidis gr X, Replicate 3): 0.016 µg/mL (≈ 0.0381 µM)
MIC (Neisseria meningitidis gr Y, Consensus): 0.008 µg/mL (≈ 0.019 µM)
MIC (Neisseria meningitidis gr Y, Replicate 1): 0.016 µg/mL (≈ 0.0381 µM)
MIC (Neisseria meningitidis gr Y, Replicate 2): 0.008 µg/mL (≈ 0.019 µM)
MIC (Neisseria meningitidis gr Y, Replicate 3): 0.008 µg/mL (≈ 0.019 µM)
MIC (Neisseria meningitidis gr Z, Consensus): 0.016 µg/mL (≈ 0.0381 µM)
MIC (Neisseria meningitidis gr Z, Replicate 1): 0.032 µg/mL (≈ 0.0761 µM)
MIC (Neisseria meningitidis gr Z, Replicate 2): 0.016 µg/mL (≈ 0.0381 µM)
MIC (Neisseria meningitidis gr Z, Replicate 3): 0.016 µg/mL (≈ 0.0381 µM)
MIC (Neisseria mucosa 1, Consensus): 0.25 µg/mL (≈ 0.595 µM)
MIC (Neisseria mucosa 1, Replicate 1): 0.25 µg/mL (≈ 0.595 µM)
MIC (Neisseria mucosa 1, Replicate 2): 0.5 µg/mL (≈ 1.19 µM)
MIC (Neisseria mucosa 1, Replicate 3): 0.25 µg/mL (≈ 0.595 µM)
MIC (Neisseria mucosa 2, Replicate 1): 0.064 µg/mL (≈ 0.152 µM)
MIC (Neisseria mucosa 3, Consensus): 0.032 µg/mL (≈ 0.0761 µM)
MIC (Neisseria mucosa 3, Replicate 1): 0.032 µg/mL (≈ 0.0761 µM)
MIC (Neisseria mucosa 3, Replicate 2): 0.032 µg/mL (≈ 0.0761 µM)
MIC (Neisseria mucosa 3, Replicate 3): 0.064 µg/mL (≈ 0.152 µM)
MIC (Neisseria mucosa 4, Consensus): 1 µg/mL (≈ 2.38 µM)
